Assay results published in article PMC6277198, “Molecular basis for activation of lecithin:cholesterol acyltransferase by a compound that increases HDL cholesterol” (eLife, 2018).
Entries after “also recorded” stand apart in the source; their conditions may differ.

What was measured:
WT LCAT [1] = molecular target: T1, WT LCAT (Homo sapiens, UniProt P04180); assay: MST binding assay; design: hydrolysis of 4-methylumbelliferyl palmitate (MUP) by full-length LCAT; made in house; host or cells: HEK293F (transient transfection, secreted)
T1 sequence (P04180 25-440): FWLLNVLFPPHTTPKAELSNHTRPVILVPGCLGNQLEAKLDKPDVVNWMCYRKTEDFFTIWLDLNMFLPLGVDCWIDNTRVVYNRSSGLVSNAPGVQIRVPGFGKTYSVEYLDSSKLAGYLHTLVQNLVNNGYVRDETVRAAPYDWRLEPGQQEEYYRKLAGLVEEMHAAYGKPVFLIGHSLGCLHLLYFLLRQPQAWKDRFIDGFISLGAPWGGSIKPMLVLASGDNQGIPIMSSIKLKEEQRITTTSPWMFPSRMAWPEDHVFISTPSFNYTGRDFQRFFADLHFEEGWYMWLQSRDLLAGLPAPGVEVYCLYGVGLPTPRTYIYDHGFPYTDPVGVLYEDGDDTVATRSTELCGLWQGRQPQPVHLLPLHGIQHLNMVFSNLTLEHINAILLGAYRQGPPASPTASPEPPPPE
Experimental: MST was used to determine the binding affinity of the compounds to LCAT. Recombinant proteins were labeled with a fluorophore using the Monolith His-tag labeling RED-Tris-NTA 2nd Generation kit following manufacturer’s protocol. Compounds were titrated in a two-fold dilution series starting at 20 μM and incubated with the same volume of 100 nM labeled recombinant protein for 5 min at room temperature. Measurements were carried out in PBS containing 0.05% Tween-20 and standard capillaries using a Monolith NT.115 instrument (Nanotemper Technologies) with 50% LED excitation power, 60% MST power, MST on-time of 30 s and off-time of 5 s. Kd values were calculated by fitting the thermophoresis signal at 20 s of the thermograph using MO.AffinityAnalysis software.

LPLA2 = molecular target: T2, LPLA2 (Homo sapiens, UniProt Q8NCC3); assay: Differential scanning fluorimetry; assay type: binding
T2 sequence (Q8NCC3 34-412): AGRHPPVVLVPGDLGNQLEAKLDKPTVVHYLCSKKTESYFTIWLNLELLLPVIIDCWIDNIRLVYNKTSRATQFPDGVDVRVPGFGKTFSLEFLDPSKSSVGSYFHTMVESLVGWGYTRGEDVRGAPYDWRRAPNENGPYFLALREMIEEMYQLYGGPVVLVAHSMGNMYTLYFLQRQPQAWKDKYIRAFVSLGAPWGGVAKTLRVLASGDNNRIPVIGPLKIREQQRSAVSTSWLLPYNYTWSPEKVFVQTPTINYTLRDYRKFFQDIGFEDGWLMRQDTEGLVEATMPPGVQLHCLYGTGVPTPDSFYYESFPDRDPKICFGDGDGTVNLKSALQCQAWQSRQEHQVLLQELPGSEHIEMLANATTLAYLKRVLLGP

[2] = tested on: LPLA2 chimeric variants (S33Y, I53G, and S33Y/I53G); assay: Differential scanning fluorimetry; assay type: binding
WT LCAT [3] = molecular target: T1, WT LCAT; assay: DHE acyltransferase assay with peptide-based HDLs; assay type: biochemical; design: hydrolysis of 4-methylumbelliferyl palmitate (MUP) by full-length LCAT; made in house; host or cells: HEK293F (transient transfection, secreted)
Experimental: Peptide-based HDLs were used in this assay as there is no difference between peptide HDLs and ApoA-I HDLs in both HDL binding and acyltransferase assays ([Manthei et al., 2017]). The peptide HDLs were made using the ESP24218 peptide with the sequence […] ([Dassuex et al., 1999]; [Li et al., 2015]) with a DPPC:POPC:DHE ratio of 47:47:6 as previously described ([Manthei et al., 2017]). The assay was performed in 384-well low volume black microplates (Corning 4514) with a total assay volume of 16 μL. In each reaction, LCAT was diluted in assay buffer to 15 μg mL^−1 in the presence of either 1% DMSO or 10 μM 2 with 1% DMSO. Compound 2 was used in this assay because it has lower background fluorescence than 1. The DHE HDLs were diluted in 1X PBS with 1 mM EDTA and 5 mM β-mercaptoethanol. 8 μL of the HDLs were added to the plate, and the reactions were initiated with 8 μL of LCAT, so that LCAT was assayed at 7.5 μg mL^−1 with and without 5 μM compound with a range of DHE concentrations from 0 to 50 μM. The reactions were stopped after 25 min at 37 °C with the addition of 4 μL of stop solution (1X PBS with 1 mM EDTA, 5 U mL^−1 cholesterol oxidase (COx), and 7% Triton X100). Following the addition of stop solution, the plates were incubated for another 60 min at 37 °C to allow for the COx to react. After the plates were re-equilibrated at room temperature, fluorescence was determined on a SpectraMax plate reader with excitation at 325 nm and emission at 425 nm, with a 420 nm cutoff. Reactions without LCAT were used for background subtraction, and reactions without LCAT and stop solution lacking COx were used to generate a standard curve for DHE. Reactions were performed in triplicate with three independent experiments per LCAT variant. Data were processed via background subtraction to remove excess fluorescence that results from the higher concentrations of DHE. […] Outliers were removed using automatic outlier elimination within Prism. For statistical analysis, the Vmax for each variant was compared to WT using a one-way analysis of variance followed by Tukey’s multiple comparisons post-test in GraphPad Prism.
To determine EC50 values, compound 2 was titrated from 0.004 to 10 μM, and the DHE concentration was set at 50 μM. LCAT was diluted in assay buffer and compound 2 dilutions were made with assay buffer containing 5.3% DMSO. 1.5 μL compound was added, then 6.5 μL LCAT, followed by 8 μL DHE. Dilutions were adjusted so that LCAT was assayed at 7.5 μg mL^−1, as above. All values were background subtracted to buffer with the same concentration of compound 2. A standard curve was included in one experiment with DHE from 0 to 50 μM in order to adjust the final fluorescence values to a rate by dividing by the slope of the line and time (25 min), as above. […]

| Compound | Binding to WT LCAT by MST (WT LCAT [1]) | Kd (WT LCAT [1]; read-out: Kd, binding to LCAT via microscale thermophoresis) | Thermal stabilization (DSF) (LPLA2) | Thermal stabilization (DSF) [2] | Fold activation, DHE acyltransferase activity (WT LCAT [3]; WT LCAT, peptide-based HDLs) | acyltransferase rate (WT LCAT [3]; WT LCAT, lowest concentration of compound 2 examined) | EC50 (WT LCAT [3]; WT, compound 2 titrated from 0.004 to 10 μM, DHE 50 μM) | Vmax, DHE assay (WT LCAT [3]; with 5 μM compound 2 (22 without)) |
| --- | --- | --- | --- | --- | --- | --- | --- | --- |
| O=C1CC(O)(C(F)(F)F)c2c(ncn2C2CCNCC2)N1 (stereo not drawn) [compound 6, 7-Hydroxy-1-(piperidin-4-yl)−7-(trifluoromethyl)−6,7-dihydro-1H-imidazo[4,5-b]pyridin-5(4H)-one] | does not bind; also recorded: unable to bind | – | – | – | – | – | – | – |
| N#Cc1cnc(N2CCC(c3n[nH]c4c3C(O)(C(F)(F)F)CC(=O)N4)CC2)cc1C(F)(F)F (stereo not drawn) [compound 1, 6-(4-(4-Hydroxy-6-oxo-4-(trifluoromethyl)−4,5,6,7-tetrahydro-1H-pyrazolo[3,4-b]pyridin-3-yl)piperidin-1-yl)−4-(trifluoromethyl)nicotinonitrile] | does | 0.1 ± 0.014 µM | not stabilized | unable to be stabilized | – | – | – | – |
| O=C1CC(O)(C(F)(F)F)c2c(C3CCN(c4cnc(C(F)(F)F)cn4)CC3)n[nH]c2N1 (stereo not drawn) [compound 2, 4-Hydroxy-4-(trifluoromethyl)−3-(1-(5-(trifluoromethyl)pyrazin-2-yl)piperidin-4-yl)−4,5-dihydro-1H-pyrazolo[3,4-b]pyridin-6(7H)-one] | – | – | – | – | 2.8 fold | 11 µM/h | 0.28 ± 0.09 µM | 37 μM DHE-ester hr^−1 |
